Source: ChEMBL document CHEMBL1201862, “PubChem BioAssay data set” (2004)
Calls of active or inactive are those of the source.

Legend:
Cytochrome P450 3A4 = Cytochrome P450 3A4 (Homo sapiens, UniProt P08684);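 further: CYP3A4 tested as one member of a cytochrome P450 panel screen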
Cytochrome P450 2C9 = Cytochrome P450 2C9 (Homo sapiens, UniProt P11712)
Cytochrome P450 2C19 = Cytochrome P450 2C19 (Homo sapiens, UniProt P33261); assay: Cytochrome panel assay with activity outcomes. Panel member name: p450-cyp2c19 Compounds with AC50 equal or less than 10 uM are considered active; type: functional; details: read-out: AC50
Cytochrome P450 2C19, sequence (P33261 whole entry): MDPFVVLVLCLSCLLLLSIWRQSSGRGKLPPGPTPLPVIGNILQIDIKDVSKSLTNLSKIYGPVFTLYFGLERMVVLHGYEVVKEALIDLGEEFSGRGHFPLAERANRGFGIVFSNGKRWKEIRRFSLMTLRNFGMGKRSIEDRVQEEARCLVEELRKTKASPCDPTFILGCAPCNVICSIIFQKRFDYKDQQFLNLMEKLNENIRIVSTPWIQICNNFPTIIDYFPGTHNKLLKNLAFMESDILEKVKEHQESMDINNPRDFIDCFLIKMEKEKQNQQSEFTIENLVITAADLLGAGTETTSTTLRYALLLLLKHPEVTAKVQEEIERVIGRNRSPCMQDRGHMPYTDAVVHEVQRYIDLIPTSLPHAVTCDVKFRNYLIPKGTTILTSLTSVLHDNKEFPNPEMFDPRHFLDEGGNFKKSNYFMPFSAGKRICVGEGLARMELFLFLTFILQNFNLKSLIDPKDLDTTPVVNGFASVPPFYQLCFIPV

[1] = NIH-3T3 fibroblast cytotoxicity, dose response, cytotoxicity control, cell-based, fluorescence, Alamar Blue, secondary assay (AID 2327); type: functional;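 further: NIH-3T3 mouse fibroblasts cultured with fluconazole at 8 µg/mL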
[2] = fluconazole-exposed Candida albicans growth modulators – fluorescence, retest, confirmation (AID 2467); type: functional, cell-based
H4 = assay: Luminescence Cell-Based Dose Response HTS to Identify Activators of 5'UTR Stem-Loop Driven Prion Protein mRNA Translation in H4 Neuroglioblastoma Cells. [Related pubchem assays: 1829 (Project Summary), 1814 (Primary HTS)]; type: functional; details: Homo sapiens
[3] = Luminescence Cell-Based Dose Response HTS to Identify Activators of Luciferase Translation or Activity in H4 […] Cells. [Related pubchem assays: 1829 (Project Summary), 1814 (Primary HTS)]; type: functional
[4] = Luminescence Cell-Based Dose Confirmation HTS to Identify Activators of 5'UTR Stem-Loop Driven Alpha-Synuclein mRNA Translation in H4 Neuroglioblastoma Cells. [Related pubchem assays: 1829 (Project Summary), 1814 (Primary HTS)]; type: functional
Cytochrome P450 1A2 = target: T1, Cytochrome P450 1A2 (Homo sapiens, UniProt P05177);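 further: PubChem cytochrome P450 panel assay, CYP1A2 panel member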
T1 sequence (P05177 whole entry): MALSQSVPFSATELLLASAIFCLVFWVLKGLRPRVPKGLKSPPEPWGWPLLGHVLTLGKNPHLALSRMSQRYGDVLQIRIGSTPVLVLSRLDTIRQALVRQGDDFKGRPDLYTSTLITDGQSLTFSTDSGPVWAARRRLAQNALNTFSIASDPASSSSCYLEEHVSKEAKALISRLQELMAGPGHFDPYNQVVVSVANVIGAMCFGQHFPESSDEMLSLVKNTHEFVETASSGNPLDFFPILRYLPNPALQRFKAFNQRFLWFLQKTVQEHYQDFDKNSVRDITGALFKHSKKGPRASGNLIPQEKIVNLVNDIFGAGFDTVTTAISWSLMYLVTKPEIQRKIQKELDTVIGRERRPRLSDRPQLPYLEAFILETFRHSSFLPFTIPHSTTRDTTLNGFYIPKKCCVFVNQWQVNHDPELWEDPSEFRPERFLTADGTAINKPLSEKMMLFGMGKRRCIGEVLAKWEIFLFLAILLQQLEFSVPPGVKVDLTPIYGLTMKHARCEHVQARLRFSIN

[5] = target: T2, Heat shock factor protein 1 (Mus musculus, UniProt P38532); assay: decrease of HSF1-responsive luciferase luminescence – cell-based, NIH3T3, dose retest, confirmation (AID 2382); type: functional;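 further: NIH3T3 fibroblasts with HSF1-driven luciferase reporter stressed by proteasome inhibitor MG132; luminescence from HSF1-driven luciferase expression after 8 hours of MG132 stress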
T2 sequence (P38532 whole entry): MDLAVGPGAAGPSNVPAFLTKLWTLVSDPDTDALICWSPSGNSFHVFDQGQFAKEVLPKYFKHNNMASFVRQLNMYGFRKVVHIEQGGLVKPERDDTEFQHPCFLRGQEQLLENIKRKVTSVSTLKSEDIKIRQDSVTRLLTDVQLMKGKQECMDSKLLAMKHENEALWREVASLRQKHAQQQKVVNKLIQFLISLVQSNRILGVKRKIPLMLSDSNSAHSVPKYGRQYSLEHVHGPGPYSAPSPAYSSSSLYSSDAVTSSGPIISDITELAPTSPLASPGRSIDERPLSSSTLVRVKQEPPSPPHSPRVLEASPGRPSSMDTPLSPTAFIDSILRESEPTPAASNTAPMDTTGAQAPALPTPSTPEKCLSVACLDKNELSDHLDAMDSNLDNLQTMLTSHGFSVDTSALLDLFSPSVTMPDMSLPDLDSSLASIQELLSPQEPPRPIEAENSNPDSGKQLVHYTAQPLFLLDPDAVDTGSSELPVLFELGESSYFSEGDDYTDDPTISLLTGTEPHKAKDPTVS

Cytochrome P450 2C9, sequence (P11712 whole entry): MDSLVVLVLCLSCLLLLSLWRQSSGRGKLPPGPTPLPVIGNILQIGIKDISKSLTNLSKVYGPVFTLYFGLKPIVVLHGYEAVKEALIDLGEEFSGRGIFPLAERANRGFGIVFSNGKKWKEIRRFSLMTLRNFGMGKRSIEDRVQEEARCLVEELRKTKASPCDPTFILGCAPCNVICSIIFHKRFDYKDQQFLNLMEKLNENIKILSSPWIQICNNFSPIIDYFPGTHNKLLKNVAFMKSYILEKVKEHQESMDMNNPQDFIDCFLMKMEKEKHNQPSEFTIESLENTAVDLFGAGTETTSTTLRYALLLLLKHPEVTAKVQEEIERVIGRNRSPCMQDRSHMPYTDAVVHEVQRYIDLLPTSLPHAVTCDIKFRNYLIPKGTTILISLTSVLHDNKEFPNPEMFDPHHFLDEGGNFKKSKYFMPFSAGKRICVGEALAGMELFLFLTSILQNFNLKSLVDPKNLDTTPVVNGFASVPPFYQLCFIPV
Cytochrome P450 3A4, sequence (P08684 whole entry): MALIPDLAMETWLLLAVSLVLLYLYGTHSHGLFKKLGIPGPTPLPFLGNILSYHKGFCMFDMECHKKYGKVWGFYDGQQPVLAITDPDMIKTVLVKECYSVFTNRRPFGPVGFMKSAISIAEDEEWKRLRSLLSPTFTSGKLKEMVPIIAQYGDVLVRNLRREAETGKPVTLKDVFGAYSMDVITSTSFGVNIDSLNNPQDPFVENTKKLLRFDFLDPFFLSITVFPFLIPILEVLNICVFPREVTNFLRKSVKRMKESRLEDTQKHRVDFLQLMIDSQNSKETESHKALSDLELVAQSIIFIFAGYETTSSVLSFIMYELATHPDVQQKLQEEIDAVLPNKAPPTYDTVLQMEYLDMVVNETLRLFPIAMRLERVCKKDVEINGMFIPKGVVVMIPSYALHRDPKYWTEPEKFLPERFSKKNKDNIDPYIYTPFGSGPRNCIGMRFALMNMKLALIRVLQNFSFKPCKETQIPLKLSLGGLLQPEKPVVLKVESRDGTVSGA

Compound	AC50 (Cytochrome P450 2C9)	EC50 (H4)	EC50 [3]	EC50 [4]	also measured
COC(=O)CSC1=C(C#N)C(c2cccc(F)c2)CC(=O)N1 (centres undefined)	0.0282 µM (inconclusive)				AC50 (Cytochrome P450 3A4): 39.8 µM (inconclusive)
O=C(N/N=C/c1ccc(Sc2nc3ccccc3s2)c([N+](=O)[O-])c1)c1ccccn1	0.00562 µM (inconclusive)				AC50 (Cytochrome P450 3A4): 3.55 µM (inconclusive); AC50 (Cytochrome P450 2C19): 7.08 µM (inconclusive)
CN1CC2([N+](=O)[O-])CC=C(OCCO)C([N+](=O)[O-])(C1)C2 (centres undefined)					EC50 [1]: > 150 µM (inconclusive); EC50 [2]: > 38 µM (not active)
COC(=O)C(CCSC)NC(=O)c1cccc([N+](=O)[O-])c1 (centres undefined)	2 µM (inconclusive)				
CCOc1ccc(NC(=O)C(S)=NC2CCCCC2)cc1		11 µM (active)	21.1 µM (active)	61.6 µM (active)	
CC1(C)C2CC=C(/C=N/NC(=O)c3ccc(Cl)cc3)C1C2 (centres undefined)		> 120 µM (not active)	12.4 µM (active)	> 120 µM (not active)	
CCOc1ccccc1NC(=O)c1cc(S(=O)(=O)N2CCC3(CC2)OCCO3)ccc1F					EC50 [1]: > 160 µM (inactive); EC50 [2]: > 38 µM (not active)
COc1ccc(-c2cc(C(F)(F)F)n3ncc(C(=O)NCC4CCCO4)c3n2)cc1OC (centres undefined)	7.94 µM (inconclusive)				AC50 (Cytochrome P450 3A4): 3.55 µM (inconclusive); AC50 (Cytochrome P450 1A2): 5.01 µM (inconclusive); AC50 (Cytochrome P450 2C19): 14.1 µM (inconclusive)
COc1ccc(COc2cc(-c3cccc(OC)c3)nc3ccc(NC(=O)C(C)C)cc23)cc1		> 120 µM (not active)	> 120 µM (not active)	> 120 µM (not active)	
CC(O)(CS(=O)(=O)Cc1ccccc1Cl)C(=O)Nc1cccc(C(F)(F)F)c1 (centres undefined)	11.2 µM (inconclusive)				
NS(=O)(=O)c1cc2c(cc1Cl)N=C(CSCc1ccccc1)NS2(=O)=O [BENZTHIAZIDE]	3.98 µM (inconclusive)				
CCCC[C@H]1C(=O)N(c2ccccc2)N(c2ccc(O)cc2)C1=O	12.6 µM (inconclusive)				AC50 (Cytochrome P450 1A2): 0.001 µM (inconclusive); AC50 (Cytochrome P450 2C19): 15.8 µM (inconclusive)
COc1ccc(N2CCN(Cc3nc4c(c(=O)[nH]c(=O)n4C)n3CCCc3ccccc3)CC2)cc1	39.8 µM (inconclusive)				AC50 (Cytochrome P450 2C19): 28.2 µM (inconclusive)
CN(C)c1ncc2nc(-c3ccccc3)c(=O)n(Cc3cccs3)c2n1	10 µM (inconclusive)				AC50 (Cytochrome P450 3A4): 15.8 µM (inconclusive)
CCSc1c(C(=O)NC)ccc2c1C(=O)c1ccccc1C2=O	10 µM (inconclusive)				AC50 (Cytochrome P450 3A4): 12.6 µM (inconclusive); AC50 (Cytochrome P450 2C19): 28.2 µM (inconclusive)
Cc1ccc(-c2c[n+](CC(=O)N3c4ccccc4Sc4ccccc43)c3n2CCC3)cc1					EC50 [1]: > 150 µM (inactive); EC50 [2]: 2.77 µM (active)
Cc1nn(CC(=O)c2ccccc2Cl)c(C)c1[N+](=O)[O-]		25.4 µM (active)	15.8 µM (active)	38.2 µM (active)	
COCCN=C(S)N1C2CCC1CC(NC(=O)NC13CC4CC(CC(C4)C1)C3)C2 (centres undefined)	14.1 µM (inconclusive)				AC50 (Cytochrome P450 2C19): 20 µM (inconclusive)
COc1ccc(Oc2ncc3nc(C)c(=O)n(-c4ccc(OC)cc4)c3n2)cc1	39.8 µM (inconclusive)				
O=C(O)CCc1ccc(-c2ccc(Cl)cc2)n1CCC(=O)O	31.6 µM (inconclusive)				
CC(=O)N1c2ccc(S(=O)(=O)N3CCC(C(=O)NCc4ccccc4Cl)CC3)cc2CC1C (centres undefined)		> 120 µM (not active)	> 120 µM (not active)	> 120 µM (not active)	
COc1cccc(-c2csc(NC(=O)Nc3ccccc3)n2)c1		18.9 µM (active)	11.1 µM (active)	> 120 µM (not active)	EC50 [5]: > 195 µM (not active)
N#CCCn1c(=O)c(-c2cccc(C#N)c2)nc2cnc(Oc3cccc(Cl)c3)nc21	12.6 µM (inconclusive)				
O=C(O)/C=C\c1c2ccc(=O)c(O)c-2oc2c(O)c(O)ccc12	7.94 µM (inconclusive)				AC50 (Cytochrome P450 2C19): 3.16 µM (inconclusive)

Compound	AC50 (Cytochrome P450 2C9)	EC50 (H4)	EC50 [3]	EC50 [4]	also measured
CC(=O)C1=NOC(CNc2ncc(C(F)(F)F)cc2Cl)C1 (centres undefined)		16.2 µM (active)	17 µM (active)	15.7 µM (active)	
Cc1cc2[nH]c(=O)c(=O)[nH]c2cc1S(=O)(=O)N1CCN(c2ccccc2F)CC1					EC50 [1]: > 150 µM (inactive); EC50 [2]: > 38 µM (not active)
Clc1ccc2c(c1)[C@H]1OCC[C@H]1[C@@H](c1ccco1)N2		9.48 µM (active)	10.9 µM (active)	19.9 µM (active)	
O=C(NN=C1C2CC3CC1CC(Cl)(C3)C2)c1ccccn1		> 120 µM (not active)	> 120 µM (not active)	> 120 µM (not active)	
Cn1c(=O)cnc2cnc(Nc3ccccc3)nc21	25.1 µM (inconclusive)				AC50 (Cytochrome P450 3A4): 25.1 µM (inconclusive); AC50 (Cytochrome P450 2C19): 7.94 µM (inconclusive)
CCn1c(Cn2nnc(-c3ccccc3)n2)nnc1SCC(=O)Nc1ccc(C(C)=O)cc1		16.1 µM (active)	71.4 µM (active)	> 120 µM (not active)	
COc1cc(C2C(C#N)=C(N)N(c3ccc(F)cc3)C3=C2S(=O)(=O)CC3)ccc1O (centres undefined)					EC50 [1]: > 160 µM (inactive); EC50 [2]: > 38 µM (not active)
CC(O)(CS(=O)(=O)c1ccccc1)C(=O)Nc1cccc(C(F)(F)F)c1 (centres undefined)	35.5 µM (inconclusive)				
NC(=NOC(=O)c1cccc([N+](=O)[O-])c1)c1cccnc1		> 120 µM (not active)	7.46 µM (inconclusive)	3.61 µM (active)	
CC1=NC(=O)C(N=Nc2cccc(O)c2)N1c1ccccc1 (centres undefined)		20.2 µM (active)	13.7 µM (active)	15.5 µM (active)	
Oc1ccc(N2CCN(C(S)=NCCc3ccccc3)CC2)cc1					EC50 [1]: > 150 µM (inactive); EC50 [2]: 0.177 µM (active)
CCn1c(SCC(=O)Nc2ccc(C(C)=O)cc2)nc2nc3c(cc2c1=O)COC(C)(C)C3		12.8 µM (active)	32.9 µM (active)	> 120 µM (not active)	
CC(C(=O)c1c[nH]c2ccccc12)N1CCSCC1 (centres undefined)	31.6 µM (inconclusive)				
O=C(CCCl)N(Cc1nc(O)c2ccccc2n1)Cc1cccs1					EC50 [1]: > 160 µM (inactive); EC50 [2]: > 38 µM (not active)
CCCn1c(CC)nc([N+](=O)[O-])c1Sc1ccc(F)cc1					EC50 [1]: 16.3 µM (active); EC50 [2]: > 38 µM (not active)
CCOC(=O)c1c(C)n[nH]c1N/N=C/c1cccnc1		> 120 µM (not active)	14.7 µM (active)	> 120 µM (not active)	
Oc1nc(SCc2ccccc2F)nc2ccccc12					EC50 [1]: > 150 µM (inactive); EC50 [2]: 1.26 µM (active)
N#CCCn1c(=O)c(-c2cc(F)cc(F)c2)nc2cnc(OCc3ccccc3)nc21	3.16 µM (inconclusive)				AC50 (Cytochrome P450 3A4): 15.8 µM (inconclusive)
CC(=O)N1CCc2cc(S(=O)(=O)NCCC(=O)Nc3ccc4c(c3)OCCO4)ccc21		25.6 µM (active)	9.85 µM (active)	17.4 µM (active)	
Cc1cccc(N(C)C(=S)Oc2ccc3ccccc3c2)c1 [TOLNAFTATE]	1.26 µM (inconclusive)				
Cc1cccc(CCNc2nc3ccc(C)cc3n3cnnc23)c1		7.16 µM (active)	33.2 µM (active)	0.258 µM (active)	
Cn1c(=O)cc(OCC(=O)NCc2cccnc2)c2ccccc21	14.1 µM (inconclusive)				AC50 (Cytochrome P450 1A2): 1.58 µM (inconclusive)
CC(C)CC1NC(=O)N(CC(=O)c2ccc3c(c2)OCCO3)C1=O (centres undefined)		6.39 µM (active)	1.48 µM (active)	0.298 µM (active)	
